From patent US10316021B2, “Heteroarylphenoxy benzamide kappa opioid ligands” (Pfizer Inc., priority 2016, dated 2019)
Where two headings read alike, the source gives them in different places.

What was measured:
[1] = target: T1, human kappa opioid receptor (hKOR) (Homo sapiens, UniProt P41145); test: Kappa radioligand binding assay ([3H]diprenorphine, CHO cell membranes); conditions: for Selectivity hMOR/hKOR: selectivity ratio calculated by dividing the hMOR Ki by the hKOR Ki
T1 construct: expressed in transfected cells; host or cells: CHO cells
Outline: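 Membranes from CHO cells expressing human kappa receptor incubated 1 h at room temperature with compound and 0.6 nM [3H]diprenorphine in 50 mM Tris pH 7.4, 1 mM EDTA, 5 mM MgCl2. Nonspecific binding defined with 10 μM naltrexone; filtration, scintillation counting; IC50 from 4-parameter fit converted to Ki via Cheng-Prusoff.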

[2] = In vitro intrinsic clearance in human liver microsomes; type: in vitro ADME; conditions: for CLint scaled at 2 μM: human, read-out: HLM CLint
Description: Determination of In Vitro Intrinsic Clearance in Human Liver Microsomes:
Compounds were prepared as solutions in methanol. The final concentration of methanol in the incubation media was 0.2% (v/v). […] The total incubation volume was 1 mL. The reaction mixture was pre-warmed at 37° C. for 2 min before adding NADPH (1.2 mM). Aliquots (75 μL) of the reaction mixture at 0, 5, 10, 15, and 30 min were added to acetonitrile (200 μL) containing internal standard (terfenadine)(0.05 μg/mL), and the samples were centrifuged at 2500 g for 5 min prior to liquid chromatography/tandem mass spectrometry (LC/MS-MS) analysis of each compound using multiple reaction monitoring (MRM). For control experiments, NADPH was omitted from these incubations.
The microsomal half-life (t1/2) was obtained from a log-linear plot of the substrate depletion vs incubation time and was scaled to hepatic intrinsic clearance (CLint) using the following equation, in which the term t1/2 refers to the in vitro half-life: […]

[3] = test system: THLE-2 (transformed human liver epithelial) cells; test: Transformed human liver epithelial (THLE) assay, ATP depletion 72 h; type: cell-based; conditions: for cytotoxicity in THLE cell line, in words: cellular ATP; for IC50: Homo sapiens, read-out: THLE
Description: Transformed Human Liver […] (THLE) Assay:
ATP depletion was measured after 72 hours of exposure to a particular concentration of the chemical. […] Cells were cultured in T175 Human fibronectin/collagen/bovine serum albumin coated flasks. […] Plates were incubated for 24 hours at 37° C., 5% CO2.
All compounds were initially solubilized in 100% DMSO. This dosing scheme contained 32 compounds per plate. Stock plates were prepared using 1 μl aliquots of 100× compound/well (30 mM-0.058 mM). The plates were prepared for dosing by adding 99 μl of cell culture media and mixing. Test compounds were added to cell culture plates by aspirating overnight culture media and replacing with 25 μL/well of media containing test compound using the layout outlined below. The final concentration of DMSO in each well was 1.0%. […] The ATP concentration was determined by reading luminescence using a Wallac Envision plate reader (Perkin Elmer, Waltham, Mass., USA). Percent of viable cells relative to no-drug treated controls was determined for each well.

HepG2 cells = test: HepG2_Glu ATP viability 72 hr; type: cell-based, human; conditions: for cytotoxicity in HepG2 cell line, in words: 72 hours, cellular ATP; for IC50: Homo sapiens, HepG2, glucose-supplemented media, ATP viability, 72 hour exposure, read-out: HepG2 Glu 72 hr
Description: This assay was run in a similar manner to the assay as described in Marroquin et al. Toxicological Sciences 97(2), 539-547 (2007) with a modification such that the instant assay was run for a 72 hour period as described below.
The aim of this assay was to measure cytotoxicity of a compound by measuring cell viability. […] The reagent used to quantify the ATP present was Promega Cell Titer-Glo. This reagent works by catalyzing luciferin by luciferase in the presence of Mg^2+, ATP, and molecular oxygen, thus emitting a luminescent signal, which was proportional to the amount of ATP present in the sample.
HepG2 cells grown in glucose-supplemented media were plated in 384 well plates at a density of 1000 cells/well for the 72 hour assay in a total medium volume of 25 μl/well. Plates were then incubated for 24 hours at 37° C., 95% humidity, and 5% CO2 before compound dosing.
After 24 hours to allow cells to attach to the plate, HepG2 cells were exposed to test compounds in an 11-point dose response format with a […], ranging from 300 uM to 0.029 uM for 72 hours. All compounds were tested in triplicate. Following the 72 hour exposure to test compounds, cell viability was determined by measuring the concentration of cellular ATP by adding Promega Cell Titer-Glo according to the manufacturer's directions. The plates were then read on a […] plate reader and data is analyzed using ActivityBase software.

[4] = Shake flask Log D (SFLogD) determination, pH 7.4; type: physicochemical; conditions: for logD: shake flask, octan-1-ol / 0.1 M sodium phosphate buffer
Description: Shake Flask Log D (SF Log D) Determination:
The Log D determinations were carried out in a similar manner as described by Hay et al. Drug Metabolism and Disposition 37(9), 1864-1870, 2009, the procedure of which is generally described below.
Log D(7.4) Determination. The distribution coefficient of the test compounds between octan-1-ol and 0.1 M sodium phosphate buffer, pH 7.4, was determined by the shake flask methodology in an automated manner. 0.3 mg of compound was dissolved in 300 μL of octan-1-ol and aliquoted in duplicate into a 96-well block. Three hundred microliters of presaturated buffer (2 liters of buffer presaturated with 10 mL of octan-1-ol) was added to the wells, and the solution was vigorously mixed. After centrifugation, the two phases were separated. Ten microliters of a 1:200 dilution of the octan-1-ol layer and 10 μL of a 1:20 dilution of the buffer layer were directly injected onto the high-performance liquid chromatography (HPLC) (for example using an appropriate C18 column, isocratic elution with 90% methanol, 10% water, 2 mM ammonium acetate, and 0.03% formic acid at flow rate of 2 mL/min). The peak areas were corrected for the dilution factors, and the following calculation was applied to determine the mean log D value at pH 7.4 (log D(7.4)): […]

[5] = Table 19, geometric mean of 2-6 determinations unless otherwise indicated (Example 3: >=7), read-out: hKOR binding assay Ki
[6] = Table 20, radioligand binding, read-out: hKOR binding assay Ki
[7] = radioligand binding, [3H]diprenorphine, read-out: hKOR Ki
[8] = pH 7.4, human liver microsomal intrinsic clearance
[9] = THLE-2, ATP cell viability, 72 hours

T1 sequence (P41145 whole entry): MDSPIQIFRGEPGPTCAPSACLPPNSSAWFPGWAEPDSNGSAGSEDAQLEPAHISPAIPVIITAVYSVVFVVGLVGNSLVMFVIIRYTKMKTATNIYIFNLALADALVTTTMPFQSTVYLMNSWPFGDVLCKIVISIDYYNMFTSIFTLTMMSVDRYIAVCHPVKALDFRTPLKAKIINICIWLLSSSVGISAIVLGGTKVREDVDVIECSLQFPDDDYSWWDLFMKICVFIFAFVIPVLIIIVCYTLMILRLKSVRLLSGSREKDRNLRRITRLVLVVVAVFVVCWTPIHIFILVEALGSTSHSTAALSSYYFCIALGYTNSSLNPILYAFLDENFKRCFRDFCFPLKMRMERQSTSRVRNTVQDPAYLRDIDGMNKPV

Structure (SMILES)	selectivity for KOR over MOR, in words [1]	Ki [1, 5] [µM]	Ki [1, 6] [µM]	Ki [1, 7] [µM]	Selectivity hMOR/hKOR [1]	hepatic / metabolic clearance in human liver microsomes, in words [2]	CLint scaled at 2 μM [2, 8] [mL/min/kg]	CLint scaled at 2 μM ([2]; pH 7.4, human liver microsomes) [mL/min/kg]	cytotoxicity in THLE cell line, in words ([3]; 72 hours)	IC50 [3, 9] [µM]	cytotoxicity in HepG2 cell line, in words (HepG2 cells)	IC50 (HepG2 cells) [µM]	Log D, in words [4]	logD [4]	IC50 ([3]; THLE-2, 72 h) [µM]	Ki ([1]; hKOR binding assay Ki, Table 20, radioligand binding) [µM]
COc1nn(C)cc1[C@@H]1CCCN1Cc1ccc(Oc2ccc(C(N)=O)cc2)cc1 (single isomer, unassigned) [Example 12]	more selective than the phenyl examples, Comparators A and B	0.00147	0.0015	0.001 to 0.003	31	surprisingly low intrinsic metabolic turnover rates	8	< 20	little to no cytotoxicity	> 300	little to no cytotoxicity	> 300	much more in line with drugs that progress to Phase II	1.4		
COc1nn(C)cc1C1CCCN1Cc1ccc(Oc2ccc(C(N)=O)cc2F)cc1 (single isomer, unassigned; (-)) [Example 8, (−)-3-Fluoro-4-(4-{[2-(3-methoxy-1-methyl-1H-pyrazol-4-yl)pyrrolidin-1-yl]methyl}phenoxy)benzamide]	more selective than the phenyl examples, Comparators A and B	0.00256	0.0026	0.001 to 0.003	37	surprisingly low intrinsic metabolic turnover rates	12	< 20	little to no cytotoxicity	> 300	little to no cytotoxicity	> 300	much more in line with drugs that progress to Phase II	1.9		
NC(=O)c1ccc(Oc2ccc(CN3CCC(c4ccccc4)C3)cc2)nc1 (stereo not drawn) [Comparator A, reference compound]			0.0031		0.03		20			> 300		174		1.8		
NC(=O)c1ccc(Oc2ccc(CN3CCCCC3c3ccccc3)cc2)nc1 (stereo not drawn) [Comparator B]						high hepatic clearance	89			224		112		2.7		
NC(=O)c1ccc(Oc2ccc(CN3CCCC3c3cccnc3)cc2)c(Cl)c1 (stereo not drawn) [Comparator C]			0.0012		17	high hepatic clearance	320			177		72		3.2		
NC(=O)c1ccc(Oc2ccc(CN3CCCC3c3ccccc3)cc2)nc1 (stereo not drawn) [Comparator D]			0.0058		28		45					69		2.3	179	
Cc1cc(C)cc([C@@H]2CCCN2Cc2ccc(Oc3ccc(C(N)=O)cc3F)cc2)c1 [Comparator E, reference compound]			0.0002		39		30		cytotoxicity at lower concentrations	26	cytotoxicity at lower concentrations	43	significantly higher Log D values	4.6		
NC(=O)c1ccc(Oc2ccc(CN3CCC[C@H]3c3cccc(F)c3)cc2)c(F)c1 [Comparator F]					35		36		cytotoxicity at lower concentrations		cytotoxicity at lower concentrations	56	significantly higher Log D values	3.7	37	0.0011
Cc1nn(C)cc1[C@@H]1CCCN1Cc1ccc(Oc2ccc(C(N)=O)cc2)cc1 [Example 11, 4-(4-{[(2S)-2-(1,3-Dimethyl-1H-pyrazol-4-yl)pyrrolidin-1-yl]methyl}phenoxy)benzamide]	more selective than the phenyl examples, Comparators A and B	0.00121	0.0012	0.001 to 0.003	42	surprisingly low intrinsic metabolic turnover rates	20	< 20	little to no cytotoxicity		little to no cytotoxicity	267	much more in line with drugs that progress to Phase II	1.9	> 300	
